Where “and” joins values, the source holds several entries; their conditions need not be identical. Equal values may be shown once. Inconclusive results and toxic doses are left out.

Here are results for 20 compounds from PubChem BioAssay AID248 (DTP/NCI, 2004).

The assay relates to L1210 leukemia ip in BDF1 mice, survival T/C. The experiment in a line: NCI In Vivo Anticancer Drug Screen. Data for tumor model L1210 Leukemia (intraperitoneal) in B6D2F1 (BDF1) mice. The conditions noted are these: endpoint: mean survival time, higher = longer survival. In a few lines:
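Transplantable tumor model; survival measured in treated vs vehicle control mice. Value = treated/control.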

The mark [1] stands for this setting: dose: 50.0 mg/kg/injection, schedule: Q01DX001 (ip), vehicle: saline.
Where [2] appears, read: dose: 100.0 mg/kg/injection, schedule: Q01DX001 (ip), vehicle: saline.
The mark [3] stands for this setting: dose: 200.0 mg/kg/injection, schedule: Q01DX001 (ip), vehicle: saline.
[4] abbreviates: dose: 400.0 mg/kg/injection, schedule: Q01DX001 (ip), vehicle: saline.
Where [5] appears, read: dose: 75.0 mg/kg/injection, schedule: Q01DX001 (ip), vehicle: saline.
Where [6] appears, read: dose: 150.0 mg/kg/injection, schedule: Q01DX001 (ip), vehicle: saline.
[7] abbreviates: dose: 100.0 mg/kg/injection, schedule: Q04DX003 (ip), vehicle: Klucel (hydroxypropylcellulose) (HPC).
The mark [8] stands for this setting: dose: 200.0 mg/kg/injection, schedule: Q04DX003 (ip), vehicle: Klucel (hydroxypropylcellulose) (HPC).
[9] abbreviates: dose: 400.0 mg/kg/injection, schedule: Q04DX003 (ip), vehicle: Klucel (hydroxypropylcellulose) (HPC).
Setting [10] is: dose: 100.0 mg/kg/injection, schedule: Q01DX009 (ip), vehicle: saline with Tween-80.
Where [11] appears, read: dose: 100.0 mg/kg/injection, schedule: Q04DX002 (ip), vehicle: saline with Tween-80.
Setting [12] is: dose: 100.0 mg/kg/injection, schedule: Q04DX003 (ip), vehicle: saline.
Where [13] appears, read: dose: 200.0 mg/kg/injection, schedule: Q04DX002 (ip), vehicle: saline with Tween-80.
Where [14] appears, read: dose: 200.0 mg/kg/injection, schedule: Q04DX003 (ip), vehicle: saline.
[15] abbreviates: dose: 400.0 mg/kg/injection, schedule: Q04DX003 (ip), vehicle: saline.

Consider `O=C(CC1(O)CCCCC1)Nc1ccccc1`, for which the T/C was 100 % of control under setting [1], 97 % of control under setting [2], 101 % of control under setting [3] and 97 % of control under setting [4].
As for `Nc1c2c([nH]c(=O)c1N=O)CCC2`, the T/C is, setting by setting: under setting [1], 95 % of control; under setting [2], 93 % of control; under setting [3], 95 % of control; under setting [4], 104 % of control.
As for `CCCCCCCCC(CCCCCCCC)CC1CC2CC1C1CCCC21` (stereo not drawn), the T/C is 92 % of control (dose: 75.0 mg/kg/injection, schedule: Q01DX001 (ip), vehicle: saline with Tween-80); 98 % of control (dose: 150.0 mg/kg/injection, schedule: Q01DX001 (ip), vehicle: saline with Tween-80); 95 % of control (dose: 300.0 mg/kg/injection, schedule: Q01DX001 (ip), vehicle: saline with Tween-80).
As to `CC/C=C(\CCC)C1(CC)C(=O)NC(=O)NC1=O`, the T/C is, setting by setting: under setting [5], 94 % of control; under setting [6], 105 % of control.
Consider `CCN(CC)S(=O)(=O)c1ccc(C(=O)O)cc1`, for which the T/C reads like this: (dose: 100.0 mg/kg/injection, schedule: Q01DX009 (ip), vehicle: Klucel (hydroxypropylcellulose) (HPC)) 101 % of control; under setting [7], 101 % of control; (dose: 200.0 mg/kg/injection, schedule: Q01DX009 (ip), vehicle: Klucel (hydroxypropylcellulose) (HPC)) 104 % of control; under setting [8], 105 % of control; (dose: 400.0 mg/kg/injection, schedule: Q01DX009 (ip), vehicle: Klucel (hydroxypropylcellulose) (HPC)) 103 % of control; under setting [9], 92 % of control.
As to `Cc1ccc(Cl)cc1NC(=O)N(C)C1CCCCC1`, the T/C by setting is: (dose: 100.0 mg/kg/injection, schedule: Q01DX001 (ip), vehicle: saline with Tween-80) 101 % of control; under setting [10], 94 % of control and 120 % of control; under setting [11], 104 % of control and 106 % of control; under setting [12], 97 % of control; (dose: 200.0 mg/kg/injection, schedule: Q01DX001 (ip), vehicle: saline with Tween-80) 106 % of control; (dose: 200.0 mg/kg/injection, schedule: Q01DX009 (ip), vehicle: saline with Tween-80) 96 % of control and 113 % of control. For the same compound, the T/C is 98 % of control and 109 % of control under setting [13]; 111 % of control under setting [14]; 98 % of control (dose: 400.0 mg/kg/injection, schedule: Q01DX001 (ip), vehicle: saline with Tween-80); 100 % of control and 110 % of control (dose: 400.0 mg/kg/injection, schedule: Q01DX009 (ip), vehicle: saline with Tween-80); 95 % of control and 112 % of control (dose: 400.0 mg/kg/injection, schedule: Q04DX002 (ip), vehicle: saline with Tween-80); 90 % of control under setting [15].
`Cc1nc(N)[nH]c(=O)c1CCCCCN`: the T/C by setting is: under setting [12], 101 % of control; under setting [14], 106 % of control; under setting [15], 100 % of control.
Take `Cn1cnc2cnc([N+](C)(C)C)nc21`: the T/C runs as follows: under setting [12], 103 % of control; under setting [14], 114 % of control.
Consider `O=C(O)c1ccc(N/N=C\c2cc(=O)[nH]c(=O)[nH]2)cc1`, for which the T/C is 97 % of control (dose: 5.0 mg/kg/injection, schedule: Q01DX001 (ip), vehicle: saline); 97 % of control (dose: 10.0 mg/kg/injection, schedule: Q01DX001 (ip), vehicle: saline); 98 % of control (dose: 20.0 mg/kg/injection, schedule: Q01DX001 (ip), vehicle: saline); 97 % of control (dose: 40.0 mg/kg/injection, schedule: Q01DX001 (ip), vehicle: saline).
Regarding `CC(Br)c1ccc(S(=O)(=O)F)cc1` (stereo not drawn), the T/C reads like this: under setting [11], 104 % of control; under setting [13], 101 % of control.
Consider `CCCN1C(=O)C=CC1=O`, for which the T/C is 96 % of control (dose: 25.0 mg/kg/injection, schedule: Q01DX009 (ip), vehicle: saline with Tween-80); 91 % of control (dose: 25.0 mg/kg/injection, schedule: Q04DX003 (ip), vehicle: saline with Tween-80); 96 % of control (dose: 50.0 mg/kg/injection, schedule: Q01DX009 (ip), vehicle: saline with Tween-80); 92 % of control (dose: 50.0 mg/kg/injection, schedule: Q04DX003 (ip), vehicle: saline with Tween-80); 95 % of control under setting [10]; 97 % of control (dose: 100.0 mg/kg/injection, schedule: Q04DX003 (ip), vehicle: saline with Tween-80).
As to `CC(c1ccccc1C(=O)O)c1ccc(Br)c2ccccc12` (stereo not drawn), the T/C was 93 % of control (dose: 50.0 mg/kg/injection, schedule: Q04DX003 (ip), vehicle: Klucel (hydroxypropylcellulose) (HPC)); 108 % of control under setting [7]; 98 % of control under setting [8].
Consider `CCC[CH2][Sn]([CH2]CC#N)([CH2]CCC)[CH2]CCC`, for which the T/C runs as follows: (dose: 25.0 mg/kg/injection, schedule: Q04DX002 (ip), vehicle: saline) 97 % of control; (dose: 50.0 mg/kg/injection, schedule: Q04DX002 (ip), vehicle: saline) 94 % of control.
`CCCCNC(=O)C1CC2c3cc(Br)cc4[nH]c(Br)c(c34)CC2N(C)C1` (stereo not drawn): the T/C reads like this: (dose: 25.0 mg/kg/injection, schedule: Q04DX003 (ip), vehicle: Klucel (hydroxypropylcellulose) (HPC)) 96 % of control; under setting [7], 91 % of control; under setting [9], 89 % of control.
For `CN1C(c2ccc(Cl)cc2)OCC1(C)C` (stereo not drawn), the T/C is, setting by setting: (dose: 100.0 mg/kg/injection, schedule: Q04DX003 (ip), vehicle: saline sonified) 90 % of control; (dose: 200.0 mg/kg/injection, schedule: Q04DX003 (ip), vehicle: saline sonified) 92 % of control.
As to `NC1=NC(c2ccc(Cl)cc2)N(c2ccc(S(N)(=O)=O)cc2)C(N)=N1` (stereo not drawn), the T/C under setting [5] is 102 % of control and the T/C under setting [6] is 96 % of control.
With `O=C1CCCC2C1CCC1C3CCC(O)CC3CCC21` (stereo not drawn), the T/C (dose: 100.0 mg/kg/injection, schedule: Q01DX001 (sc), vehicle: steriod suspending solution) was 91 % of control; the T/C (dose: 200.0 mg/kg/injection, schedule: Q01DX001 (sc), vehicle: steriod suspending solution) is 93 % of control; the T/C (dose: 400.0 mg/kg/injection, schedule: Q01DX001 (sc), vehicle: steriod suspending solution) is 95 % of control.
In the case of `CC(=O)Nc1ccc(NC(=O)Nc2ccc(Cl)cc2)cc1`, the T/C (dose: 25.0 mg/kg/injection, schedule: Q01DX001 (ip), vehicle: carboxymethylcellulose (CMC)) was 92 % of control and 90 % of control; the T/C (dose: 50.0 mg/kg/injection, schedule: Q01DX001 (ip), vehicle: carboxymethylcellulose (CMC)) is 93 % of control and 97 % of control; the T/C (dose: 100.0 mg/kg/injection, schedule: Q01DX001 (ip), vehicle: carboxymethylcellulose (CMC)) is 95 % of control and 101 % of control and 87 % of control; the T/C (dose: 100.0 mg/kg/injection, schedule: Q01DX009 (ip), vehicle: carboxymethylcellulose (CMC)) was 93 % of control and 94 % of control; the T/C (dose: 100.0 mg/kg/injection, schedule: Q04DX003 (ip), vehicle: carboxymethylcellulose (CMC)) was 87 % of control and 88 % of control; the T/C (dose: 200.0 mg/kg/injection, schedule: Q01DX001 (ip), vehicle: carboxymethylcellulose (CMC)) is 94 % of control. The T/C was 92 % of control and 94 % of control (dose: 200.0 mg/kg/injection, schedule: Q01DX009 (ip), vehicle: carboxymethylcellulose (CMC)); 92 % of control and 90 % of control (dose: 200.0 mg/kg/injection, schedule: Q04DX003 (ip), vehicle: carboxymethylcellulose (CMC)); 95 % of control (dose: 400.0 mg/kg/injection, schedule: Q01DX001 (ip), vehicle: carboxymethylcellulose (CMC)); 104 % of control and 122 % of control (dose: 400.0 mg/kg/injection, schedule: Q01DX009 (ip), vehicle: carboxymethylcellulose (CMC)); 98 % of control and 87 % of control (dose: 400.0 mg/kg/injection, schedule: Q04DX003 (ip), vehicle: carboxymethylcellulose (CMC)).
As for `Nc1ncnc2c1c(C1=NCCCN1)cn2C1OC(CO)C(O)C1O` (stereo not drawn), the T/C was 117 % of control (dose: 12.5 mg/kg/injection, schedule: Q01DX005 (ip), vehicle: saline) and 151 % of control (dose: 50.0 mg/kg/injection, schedule: Q01DX005 (ip), vehicle: saline).
As for `COC(=O)c1ccc[n+](C)c1`, the T/C reads like this: (dose: 100.0 mg/kg/injection, schedule: Q04DX002 (ip), vehicle: saline) 104 % of control; (dose: 200.0 mg/kg/injection, schedule: Q04DX002 (ip), vehicle: saline) 101 % of control.
